The values below come from patent EP0124925A1, “Derivatives of d-2-(6-methoxy-2-naphthyl)-propionic acid having therapeutical activity, process for their preparation and pharmaceutical compositions containing them” (FARMA RESA SrL, priority 1983, dated 1984).

Series [1] is described as follows: mucolithic activity: viscosity of expectorate. The following applies: 0.05M, one hour incubation at 37°C. The method, then: This test was carried out, in the manner known from the literature, in 13 ml samples of expectorate collected from hospitalized patients, and stored in a freezer at -20°C until the testing time.
At the tested concentration of the compound undergoing the experiment (0.05M) a viscosity reduction of 16% (29% to 13%) was found. ^7

Series [2] concerns Swiss male albine mice. Briefly: acetic acid induced stretching or writhing inhibition test (analgesic activity). The series is classed as in vivo. The protocol: This test was carried out in Swiss male albine mice, having a body weight of 30-40 g through the "stretching or writhing" inhibition test, as induced by acetic acid, the test being carried out in a manner per se known from the literature.
For orientation: An intraperitoneal irritant provokes the stretching counted in writhing tests.

The subject of series [3] is Sprague-Dawley male,rats. Briefly: yeast induced hyperpyrexy test (antipyretic activity). Type of series: in vivo. The following applies: Rattus norvegicus, tested dosages 100, 200 and 400 mg/kg. The protocol:
This test has been carried out in the manner known from the literature in Sprague-Dawley male,rats, having a body weight of 190-220g, which were selected according to the rectal temperature which was of between 37.0 and 37.7°C.
The hyperpyrexy was induced by subcutaneous injection of 2.0 ml of a 7.5% suspension of yeast as prepared at the moment.
The tested dosages were 100, 200 and 400 mg/kg and the found ED33 value was 802 mg/kg.

For series [4], the system named is Sprague-Dawaley male rats. Briefly: carrageenin induced oedema test (anti-inflammatory activity). Type of series: in vivo. The following applies: for ED33: Rattus norvegicus, carrageenin oedema inhibition. The protocol: This activity has been evaluated for the NXTP compound by the carrageenin induced oedema test, carried out in the manner known in the literature, in Sprague-Dawaley male rats, having a body weight of 180-200 g, the NXTP being administered to groups of 3 animals each at the dosages of 50, 100, 200 and 400 mg/kg, the results
being evalutaed in comparison with a control group.
Since in no caso an inhibition rate of 50% was attained, the value of ED 33 was calculated, it being 759 rng/kg (0,651 mM/kg).
A general note: The carrageenan paw model is a standard test of acute inflammation.

A short description of series [5]: solubility in water. The series is classed as physicochemical.

Structures can show the parent of a compound that is named as a salt.

As for `COc1ccc2cc(C(C)C(=O)SC(C)C(=O)NCC(=O)O)ccc2c1` (racemic) [NXTP, propionylerytrhomycin salt of DL-2-(6-methoxy-2-napthyl)-propionyl-alpha-thio-propionylglycine], in series [1], the “viscosity reduction (net of the 13% reduction with physiological solution)” value came to 16%. Also, the “viscosity reduction (total)” value in series [1] turned out to be 29%. For the same compound, in series [2] (Mus musculus, sc, inhibition of contorsions induced by acetic acid, subcutaneous route, tested doses 50, 100 and 200 mg/kg), the ED50 (as a rule, the dose that gives a 50% effect, or the effect in half of the subjects) is 400 mg/kg. Moreover, the “inhibition of the number of contorsions (dose dependence)” value in series [2] (doses 50, 100 and 200 mg/kg by subcutaneous route) is on record as “in a rate proportional to the administered doses”. The ED33 was 802 mg/kg in series [3]; 651 µmol/kg in series [4] (same value in molar unit); 759 mg/kg in series [4] (tested dosages 50, 100, 200 and 400 mg/kg, calculated because 50% inhibition was not attained). Moreover, the “oedema inhibition (dose dependence)” value in series [4] (dosages 50, 100, 200 and 400 mg/kg, versus control group) was “causes the oedema to be inhibited proportionally to the administered dose”. The compound also showed an inhibition rate in series [4] (oedema inhibition at 50, 100, 200 and 400 mg/kg, 50% attained in no case) of less than 50%.
Turning to `COc1ccc2cc(C(C)C(=O)SC(C)C(=O)NCC(=O)O)ccc2c1` (single isomer, unassigned) [L(+)-lysine salt of the DL-2-(6-methoxy-2-napthyl)-alpha- th] [L(+)lysine salt of DL-2-(6-methoxy-2-napthyl)-propionyl-alpha-thio-propionylglycine acid], the solubility in water result in series [5] is on record as “perfectly soluble in water”.
Turning to `COc1ccc2cc(C(C)C(=O)SC(C)C(=O)NCC(=O)O)ccc2c1` (single isomer, unassigned) [arginine crystalline product, Arginine salt of DL-2-(6-methoxy-2-napthyl)propionyl-alpha-thio-propionylglycine], the solubility in water entry in series [5] is on record as “soluble in water”. The pH in series [5] (pH of the product dissolved in water) was 7.3.
